Test results taken from ChEMBL document CHEMBL3132856, “Novel pyrazolo[1,5-a]pyridines as PI3K inhibitors: variation of the central linker group” (Medchemcomm, 2014).

Tests used:
[1] = biological target: T1, Phosphatidylinositol 4,5-bisphosphate 3-kinase catalytic subunit delta isoform (Homo sapiens, UniProt O00329); assay: Inhibition of PI3Kdelta (unknown origin)
T1 sequence (O00329 whole entry): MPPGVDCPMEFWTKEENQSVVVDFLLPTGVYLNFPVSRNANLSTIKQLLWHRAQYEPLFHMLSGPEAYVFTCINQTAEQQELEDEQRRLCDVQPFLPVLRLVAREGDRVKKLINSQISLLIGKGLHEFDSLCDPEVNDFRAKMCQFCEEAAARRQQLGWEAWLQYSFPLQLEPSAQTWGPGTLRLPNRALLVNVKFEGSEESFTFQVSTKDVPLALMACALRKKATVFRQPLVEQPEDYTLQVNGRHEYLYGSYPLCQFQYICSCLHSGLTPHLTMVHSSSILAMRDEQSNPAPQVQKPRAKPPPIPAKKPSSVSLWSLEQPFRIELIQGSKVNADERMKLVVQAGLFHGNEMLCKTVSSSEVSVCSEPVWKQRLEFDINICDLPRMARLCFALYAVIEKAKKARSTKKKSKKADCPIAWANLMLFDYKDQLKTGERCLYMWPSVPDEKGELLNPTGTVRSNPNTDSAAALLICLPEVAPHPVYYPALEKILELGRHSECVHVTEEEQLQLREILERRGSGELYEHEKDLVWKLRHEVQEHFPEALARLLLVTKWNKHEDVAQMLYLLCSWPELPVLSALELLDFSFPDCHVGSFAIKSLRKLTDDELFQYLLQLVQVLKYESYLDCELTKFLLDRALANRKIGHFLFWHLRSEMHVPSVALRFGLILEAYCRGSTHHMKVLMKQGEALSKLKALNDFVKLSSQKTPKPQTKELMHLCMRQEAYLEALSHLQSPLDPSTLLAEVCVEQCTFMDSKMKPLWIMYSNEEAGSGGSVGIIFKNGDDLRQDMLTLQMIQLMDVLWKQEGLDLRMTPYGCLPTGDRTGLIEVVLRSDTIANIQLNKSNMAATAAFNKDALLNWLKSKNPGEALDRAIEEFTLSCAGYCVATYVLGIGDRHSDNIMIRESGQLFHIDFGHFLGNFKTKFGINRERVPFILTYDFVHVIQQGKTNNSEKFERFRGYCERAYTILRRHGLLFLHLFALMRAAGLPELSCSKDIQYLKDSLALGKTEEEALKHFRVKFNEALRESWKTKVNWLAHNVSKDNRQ

[2] = biological target: Phosphatidylinositol 4,5-bisphosphate 3-kinase catalytic subunit beta isoform (Homo sapiens, UniProt P42338); assay: Inhibition of PI3Kbeta (unknown origin)
[3] = biological target: Phosphatidylinositol 4,5-bisphosphate 3-kinase catalytic subunit alpha isoform (Homo sapiens, UniProt P42336); assay: Inhibition of PI3Kalpha (unknown origin)
Homo sapiens [4] = organism: Homo sapiens; assay: Selectivity ratio of IC50 for PI3Kbeta (unknown origin) to IC50 for PI3Kalpha (unknown origin)
Homo sapiens [5] = organism: Homo sapiens; assay: Selectivity ratio of IC50 for PI3Kalpha (unknown origin) to IC50 for PI3Kdelta (unknown origin)
Homo sapiens [6] = organism: Homo sapiens; assay: Selectivity ratio of IC50 for PI3Kdelta (unknown origin) to IC50 for PI3Kalpha (unknown origin)

Chain of Phosphatidylinositol 4,5-bisphosphate 3-kinase catalytic subunit beta isoform (P42338 whole entry, canonical isoform): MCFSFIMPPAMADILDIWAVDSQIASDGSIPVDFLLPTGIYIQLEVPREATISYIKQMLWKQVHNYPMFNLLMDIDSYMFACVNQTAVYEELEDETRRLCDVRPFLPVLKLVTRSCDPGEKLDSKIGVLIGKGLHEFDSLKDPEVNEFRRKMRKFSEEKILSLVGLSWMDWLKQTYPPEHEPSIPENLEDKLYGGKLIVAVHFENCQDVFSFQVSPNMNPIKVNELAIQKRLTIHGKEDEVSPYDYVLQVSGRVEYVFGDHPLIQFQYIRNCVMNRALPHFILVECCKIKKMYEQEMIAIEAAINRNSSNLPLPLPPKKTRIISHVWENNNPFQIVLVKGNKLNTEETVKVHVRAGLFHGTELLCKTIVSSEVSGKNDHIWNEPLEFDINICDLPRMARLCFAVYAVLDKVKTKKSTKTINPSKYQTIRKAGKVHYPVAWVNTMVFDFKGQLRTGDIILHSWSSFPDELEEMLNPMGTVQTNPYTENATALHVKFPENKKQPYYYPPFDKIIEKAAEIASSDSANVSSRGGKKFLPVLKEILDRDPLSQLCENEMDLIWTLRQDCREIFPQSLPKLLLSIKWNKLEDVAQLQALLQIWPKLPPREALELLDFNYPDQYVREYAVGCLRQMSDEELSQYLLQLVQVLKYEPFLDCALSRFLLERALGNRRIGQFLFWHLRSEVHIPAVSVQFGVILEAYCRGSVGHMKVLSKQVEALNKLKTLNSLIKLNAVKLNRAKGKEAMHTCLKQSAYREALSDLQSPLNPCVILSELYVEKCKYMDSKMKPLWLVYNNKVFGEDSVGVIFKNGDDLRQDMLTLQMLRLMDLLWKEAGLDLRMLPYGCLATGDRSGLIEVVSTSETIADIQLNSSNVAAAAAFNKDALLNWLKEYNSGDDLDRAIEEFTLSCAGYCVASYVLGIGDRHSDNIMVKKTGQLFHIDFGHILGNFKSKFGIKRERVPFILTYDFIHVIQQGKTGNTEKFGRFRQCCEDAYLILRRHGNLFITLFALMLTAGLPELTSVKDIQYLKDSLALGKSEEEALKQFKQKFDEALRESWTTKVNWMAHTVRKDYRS
Chain of Phosphatidylinositol 4,5-bisphosphate 3-kinase catalytic subunit alpha isoform (P42336 whole entry, canonical isoform): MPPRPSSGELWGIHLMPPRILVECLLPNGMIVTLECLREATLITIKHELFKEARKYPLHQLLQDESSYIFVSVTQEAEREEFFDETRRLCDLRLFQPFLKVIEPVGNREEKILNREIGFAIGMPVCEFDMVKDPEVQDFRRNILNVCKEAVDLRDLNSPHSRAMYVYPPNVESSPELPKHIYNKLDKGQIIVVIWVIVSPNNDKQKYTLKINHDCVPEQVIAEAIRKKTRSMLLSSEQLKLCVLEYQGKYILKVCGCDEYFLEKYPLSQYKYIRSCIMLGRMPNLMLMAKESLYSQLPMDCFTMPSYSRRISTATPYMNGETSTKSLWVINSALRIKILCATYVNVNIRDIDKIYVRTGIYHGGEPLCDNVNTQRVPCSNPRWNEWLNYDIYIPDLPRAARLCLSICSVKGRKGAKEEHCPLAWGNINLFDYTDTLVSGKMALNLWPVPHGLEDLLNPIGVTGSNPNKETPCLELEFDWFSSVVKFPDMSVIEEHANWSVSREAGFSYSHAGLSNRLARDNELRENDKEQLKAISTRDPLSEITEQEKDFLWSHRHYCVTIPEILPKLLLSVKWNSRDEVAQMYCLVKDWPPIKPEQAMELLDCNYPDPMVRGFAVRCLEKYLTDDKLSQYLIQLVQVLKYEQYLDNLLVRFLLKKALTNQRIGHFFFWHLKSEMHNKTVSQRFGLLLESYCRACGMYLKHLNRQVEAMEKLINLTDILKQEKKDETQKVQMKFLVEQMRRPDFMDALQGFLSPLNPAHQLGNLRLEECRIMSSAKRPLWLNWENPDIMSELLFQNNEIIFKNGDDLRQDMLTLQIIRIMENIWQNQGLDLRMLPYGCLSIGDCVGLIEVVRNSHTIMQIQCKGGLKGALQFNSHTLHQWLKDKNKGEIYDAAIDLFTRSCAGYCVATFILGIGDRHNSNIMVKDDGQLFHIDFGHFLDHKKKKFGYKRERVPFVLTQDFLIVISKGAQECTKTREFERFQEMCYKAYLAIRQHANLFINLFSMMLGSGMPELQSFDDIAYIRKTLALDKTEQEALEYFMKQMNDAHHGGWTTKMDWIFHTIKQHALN

Compound	IC50 [1] [nM]	IC50 [2] [nM]	IC50 [3] [nM]	Ratio IC50 (Homo sapiens [4])	Ratio IC50 (Homo sapiens [5])	Ratio IC50 (Homo sapiens [6])
Cc1ccc([N+](=O)[O-])cc1CS(=O)(=O)c1nc(-c2cnn3ccc(Br)cc23)cs1	> 1000	> 1000	> 1000			
Cc1ccc([N+](=O)[O-])cc1S(=O)(=O)N[C@H]1CCN(Cc2cnn3ccc(C#N)cc23)C1	> 1000	> 1000	> 1000			
Cc1ccc([N+](=O)[O-])cc1S(=O)(=O)N[C@H]1CCCN(Cc2cnn3ccc(C#N)cc23)C1	> 1000	> 1000	> 1000			
Cc1ccc([N+](=O)[O-])cc1CSc1nc(-c2cnn3ccc(Br)cc23)cs1	> 1000	> 1000	> 1000			
Cc1ccc([N+](=O)[O-])cc1S(=O)(=O)/N=c1/scc(-c2cnn3ccc(Br)cc23)n1C	> 1000	> 1000	> 1000			
N#Cc1ccc(F)c([S+]([O-])c2nc(-c3cnn4ccc(Br)cc34)cs2)c1 (centres undefined)	200	> 1000	300			
Cc1ccc([N+](=O)[O-])cc1S(=O)(=O)N[C@@H]1CCCN(Cc2cnn3ccc(C#N)cc23)C1	> 1000	> 1000	> 1000			
O=[N+]([O-])c1cccc([S+]([O-])c2nc(-c3cnn4ccc(Br)cc34)cs2)c1 (centres undefined)	320	4420	740	< 10		
O=[N+]([O-])c1cccc(S(=O)(=O)c2nc(-c3cnn4ccc(Br)cc34)cs2)c1			630	< 10		
Cc1ccc([N+](=O)[O-])cc1S(=O)(=O)NC1CN(Cc2cnn3ccc(C#N)cc23)C1	> 1000	> 1000	> 1000			
Cc1ccc([N+](=O)[O-])cc1S(=O)(=O)N1CCC(c2cnn3ccc(Br)cc23)C1 (centres undefined)	> 1000	> 1000	3000			
Cc1ccc([N+](=O)[O-])cc1S(=O)(=O)N1CCC(c2cnn3ccc(Br)cc23)CC1	> 1000	> 1000	> 1000			
Cc1ccc([N+](=O)[O-])cc1S(=O)(=O)N1CCCC(c2cnn3ccc(Br)cc23)C1 (centres undefined)	> 1000	> 1000	590			
Cc1ccc([N+](=O)[O-])cc1Nc1nc(-c2cnn3ccc(Br)cc23)cs1	> 1000	> 1000	> 1000			
N#Cc1ccc(F)c(S(=O)(=O)c2nc(-c3cnn4ccc(Br)cc34)cs2)c1	440	> 1000	720			
CN(C)CCN(C)c1ccc(S(=O)(=O)c2nc(-c3cnn4ccc(Br)cc34)cs2)cc1C#N	640	> 1000	2470		4	
Cc1ccc([N+](=O)[O-])cc1S(=O)(=O)N(C)c1nc(-c2cnn3ccc(Br)cc23)cs1	1550	> 1000	> 1000			
Cc1ccc([N+](=O)[O-])cc1C(=O)NC1CN(Cc2cnn3ccc(C#N)cc23)C1	> 1000	> 1000	> 1000			
Cc1ccc([N+](=O)[O-])cc1S(=O)(=O)N[C@@H]1CCN(Cc2cnn3ccc(C#N)cc23)C1	> 1000	> 1000	> 1000			
Cc1ccc([N+](=O)[O-])cc1S(=O)(=O)N1CCCN(Cc2cnn3ccc(C#N)cc23)CC1	> 1000	> 1000	> 1000			

Compound	IC50 [1] [nM]	IC50 [2] [nM]	IC50 [3] [nM]	Ratio IC50 (Homo sapiens [4])	Ratio IC50 (Homo sapiens [5])	Ratio IC50 (Homo sapiens [6])
Cc1ccc([N+](=O)[O-])cc1S(=O)(=O)C/C=C/c1cnn2ccc(Br)cc12	3350	> 1000	140			
Cc1ccc([N+](=O)[O-])cc1C(=O)N1CCN(Cc2cnn3ccc(C#N)cc23)CC1	> 1000	> 1000	> 1000			
Cc1ccc([N+](=O)[O-])cc1-c1nc(-c2cnn3ccc(Br)cc23)cs1	> 1000	> 1000	> 1000			
Cc1ccc([N+](=O)[O-])cc1S(=O)(=O)Nc1nc(-c2cnn3ccc(Br)cc23)cs1	> 1000	> 1000	1260			
N#Cc1cc(S(=O)(=O)c2nc(-c3cnn4ccc(Br)cc34)cs2)ccc1F	150	> 1000	170			
Cc1ccc([N+](=O)[O-])cc1C(=O)N[C@@H]1CCN(Cc2cnn3ccc(C#N)cc23)C1	> 1000	> 1000	> 1000			
Cc1ccc([N+](=O)[O-])cc1S(=O)(=O)N1CCN(Cc2cnn3ccc(C#N)cc23)CC1	> 1000	> 1000	> 1000			
Cc1ccc([N+](=O)[O-])cc1S(=O)(=O)Cc1nc(-c2cnn3ccc(Br)cc23)cs1	90	140	240			
Cc1ccc([N+](=O)[O-])cc1C(=O)N[C@H]1CCCN(Cc2cnn3ccc(C#N)cc23)C1	> 1000	> 1000	> 1000			
O=[N+]([O-])c1cccc(Sc2nc(-c3cnn4ccc(Br)cc34)cs2)c1	> 1000	> 1000	> 1000			
Cc1ccc([N+](=O)[O-])cc1C(=O)N1CCC(c2cnn3ccc(Br)cc23)CC1	> 1000	> 1000	> 1000			
Cc1ccc([N+](=O)[O-])cc1S(=O)(=O)NC1CCN(Cc2cnn3ccc(C#N)cc23)CC1	> 1000	> 1000	> 1000			
CN(C)CCN(C)c1ccc(C#N)cc1S(=O)(=O)c1nc(-c2cnn3ccc(Br)cc23)cs1	2000	3560	370			
Cc1ccc([N+](=O)[O-])cc1C(=O)NC1CCN(Cc2cnn3ccc(C#N)cc23)CC1	> 1000	> 1000	> 1000			
Cc1ccc([N+](=O)[O-])cc1C(=O)N[C@H]1CCN(Cc2cnn3ccc(C#N)cc23)C1	> 1000	> 1000	> 1000			
CN(C)CCN(C)c1ccc(C#N)cc1[S+]([O-])c1nc(-c2cnn3ccc(Br)cc23)cs1 (centres undefined)	250	4340	4030		16	5
Cc1ccc([N+](=O)[O-])cc1C(=O)N[C@@H]1CCCN(Cc2cnn3ccc(C#N)cc23)C1	> 1000	> 1000	> 1000			
Cc1ccc([N+](=O)[O-])cc1Cc1nc(-c2cnn3ccc(Br)cc23)cs1	> 1000	> 1000	> 1000			
N#Cc1cc(S(=O)(=O)c2nc(-c3cnn4ccc(Br)cc34)cs2)ccc1NCCN1CCOCC1	240	> 1000	2130		9	
Cc1ccccc1[S+]([O-])c1nc(-c2cnn3ccc(Br)cc23)cs1 (centres undefined)	> 1000	> 1000	1280			
